Laboratory results published in US7754654B2, “Substituted spirocyclic ketoenols” (Bayer CropScience AG, priority 2002, dated 2010).
“And” between values parts separate entries of the source, which are not always exact repeats. Equal values may be shown once.

Key:
Format in all cases: in vivo
[1] = tested on: Meloidogyne incognita; experiment: Meloidogyne test (gall formation on lettuce roots); conditions: 20 ppm; nematicidal action by gall formation, 100% = no galls
Experimental: To produce a suitable preparation of active compound, 1 part by weight of active compound is mixed with the stated amounts of solvent and emulsifier, and the concentrate is diluted with water to the desired concentration. Containers are filled with sand, solution of active compound, Meloidogyne incognita egg/larvae suspension and lettuce seeds. The lettuce seeds germinate and the plants develop. On the roots, galls are formed. After the desired period of time, the nematicidal action is determined in % by the gall formation. 100% means that no galls have been found; 0% means that the number of galls on the treated plants corresponds to that of the untreated control.

[2] = tested on: peach aphid (Myzus persicae); experiment: Myzus test (cabbage leaf dip)
Experimental: To produce a suitable preparation of active compound, 1 part by weight of active compound is mixed with the stated amounts of solvent and emulsifier, and the concentrate is diluted with emulsifier-containing water to the desired concentration. Cabbage leaves (Brassica oleracea) which are heavily infested by the peach aphid (Myzus persicae) are treated by being dipped into the preparation of active compound of the desired concentration. After the desired period of time, the kill in % is determined. 100% means that all aphids have been killed; 0% means that none of the aphids have been killed.

[3] = tested on: greenhouse red spider mite (Tetranychus urticae); experiment: Tetranychus test (OP-resistant/dip treatment); conditions: 100 ppm; bean plants dipped
Experimental: To produce a suitable preparation of active compound, 1 part by weight of active compound is mixed with the stated amounts of solvent and emulsifier, and the concentrate is diluted with emulsifier-containing water to the desired concentration. Bean plants (Phaseolus vulgaris) which are heavily infested by all stages of the greenhouse red spider mite (Tetranychus urticae) are dipped into a preparation of active compound of the desired concentration. After the desired period of time, the effect in % is determined. 100% means that all spider mites have been killed; 0% means that none of the spider mites have been killed.

[4] = tested on: larvae of the mustard beetle (Phaedon cochleariae); experiment: Phaedon larvae test (cabbage leaf dip); conditions: 1000 ppm
Experimental: (§1) To produce a suitable preparation of active compound, 1 part by weight of active compound is mixed with the stated amounts of solvent and emulsifier, and the concentrate is diluted with emulsifier-containing water to the desired concentration. Cabbage leaves (Brassica oleracea) are treated by being dipped into the preparation of active compound of the desired concentration and are populated with larvae of the mustard beetle (Phaedon cochleariae) while the leaves are still moist. After the desired period of time, the kill in % is determined. 100% means that all beetle larvae have been killed; 0% means that none of the beetle larvae have been killed.

[5] = tested on: caterpillars of the army worm (Spodoptera frugiperda); experiment: Spodoptera frugiperda test (cabbage leaf dip)
Experimental: as §1, with “caterpillars” for “larvae”, “army worm (Spodoptera frugiperda)” for “mustard beetle (Phaedon cochleariae)”, “caterpillars” for “beetle larvae”

[6] = tested on: Amaranthus; experiment: Pre-emergence test; conditions: after three weeks
Experimental: (§2) To produce a suitable preparation of active compound, 1 part by weight of active compound is mixed with the stated amount of solvent, the stated amount of emulsifier is added and the concentrate is diluted with water to the desired concentration. Seeds of the test plants are sown in normal soil. After about 24 hours, the soil is sprayed with the preparation of active compound such that the particular amounts of active compound desired are applied per unit area. The concentration of the spray liquor is chosen such that the particular amounts of active compound desired are applied in 1000 l of water/ha. After three weeks, the degree of damage to the plants is rated in % damage in comparison to the development of the untreated control. The figures denote: • 0%=no effect (like untreated control) • 100%=total destruction

[7] = tested on: Alopecurus; experiment: Pre-emergence test; conditions: after three weeks
Experimental: as §2

[8] = tested on: Echinochloa; experiment: Pre-emergence test; conditions: 2000 g of ai/ha, after three weeks
Experimental: as §2

[9] = tested on: Sinapis; experiment: Pre-emergence test; conditions: 2000 g of ai/ha, after three weeks
Experimental: as §2

[10] = tested on: Setaria; experiment: Pre-emergence test; conditions: 250 g of ai/ha, after three weeks
Experimental: as §2

[11] = tested on: Setaria; experiment: Post-emergence test; conditions: 250 g of ai/ha, after three weeks
Experimental: as §2, with “Test plants” for “Seeds”, “a height of 5-15 cm” for “the test plants”, “are” for “are sown in normal soil. After about 24 hours, the soil is”

[12] = tested on: Amaranthus; experiment: Post-emergence test; conditions: 250 g of ai/ha, after three weeks
Experimental: as §2, with “Test plants” for “Seeds”, “a height of 5-15 cm” for “the test plants”, “are” for “are sown in normal soil. After about 24 hours, the soil is”

[13] = tested on: Sugar beet; experiment: Post-emergence test; conditions: 250 g of ai/ha, after three weeks
Experimental: as §2, with “Test plants” for “Seeds”, “a height of 5-15 cm” for “the test plants”, “are” for “are sown in normal soil. After about 24 hours, the soil is”

[14] = tested on: Sinapis; experiment: Post-emergence test; conditions: 250 g of ai/ha, after three weeks
Experimental: as §2, with “Test plants” for “Seeds”, “a height of 5-15 cm” for “the test plants”, “are” for “are sown in normal soil. After about 24 hours, the soil is”

[15] = tested on: Alopecurus; experiment: Post-emergence test; conditions: 250 g of ai/ha, after three weeks
Experimental: as §2, with “Test plants” for “Seeds”, “a height of 5-15 cm” for “the test plants”, “are” for “are sown in normal soil. After about 24 hours, the soil is”

## C=CCOC1CCC2(CC1)NC(=O)C(c1c(C)cc(Cl)cc1C)=C2OC(=O)OCC (single isomer, unassigned) [Ex. I-1-c-2]
[1]
  Effect in % after 14d: 100%
[2]; 500 ppm
  Kill rate in % after 6d: 95%

## Cc1cc(C)c(C2=C(O)C3(CCC(OCCOC(C)C)CC3)NC2=O)c(C)c1C (single isomer, unassigned) [Ex. I-1-a-2]
[3]
  Kill rate in % after 7d: 95%
[2]; 1000 ppm
  Kill rate in % after 6d: 100%
[4]
  Kill rate in % after 7d: 100%

## Cc1cc(C)c(C2=C(O)C3(CCC(OCc4cccc(Cl)c4)CC3)NC2=O)c(C)c1C (single isomer, unassigned) [Ex. I-1-a-22]
[1]
  Effect in % after 14d: 98%
[4]
  Kill rate in % after 7d: 100%

## Cc1ccc(C)c(C2=C(O)C3(CCC(OCc4ccccc4Cl)CC3)NC2=O)c1 (single isomer, unassigned) [Ex. I-1-a-21]
[4]
  Kill rate in % after 7d: 100%

## Cc1ccc(C)c(C2=C(O)C3(CCC(OCc4cccc(Cl)c4)CC3)NC2=O)c1 (single isomer, unassigned) [Ex. I-1-a-25]
[4]
  Kill rate in % after 7d: 100%

## C=CCOC1CCC2(CC1)NC(=O)C(c1c(C)cc(Cl)cc1Cl)=C2O (single isomer, unassigned) [Ex. I-1-a-12]
[5]; 500 ppm
  Kill rate in % after 7d: 100%
[6]; 2000 g of ai/ha
  % damage: 90%

## C=CCOC1CCC2(CC1)NC(=O)C(c1c(C)cc(Cl)cc1Cl)=C2O (single isomer, unassigned) [Ex. I-1-a-13]
[7]; 2000 g of ai/ha
  % damage: 95% and 90%

## Cc1cc(C)c(C2=C(O)C3(CCC(OCc4ccc(Cl)cc4)CC3)NC2=O)c(C)c1C (single isomer, unassigned) [Ex. I-1-a-26]
[1]
  Effect in % after 14d: 100%
[4]
  Kill rate in % after 7d: 100%

## Cc1cc(C)c(C2=C(O)C3(CCC(OCC4CCCO4)CC3)NC2=O)cc1C (single isomer, unassigned) [Ex. I-1-a-8]
[5]; 1000 ppm
  Kill rate in % after 7d: 100%

## COCCOC1CCC2(CC1)NC(=O)C(c1cc(C)ccc1C)=C2O (single isomer, unassigned) [Ex. I-1-a-5]
[5]; 1000 ppm
  Kill rate in % after 7d: 100%
[2]; 1000 ppm
  Kill rate in % after 6d: 98%

## Cc1ccc(C)c(C2=C(O)C3(CCC(OCC4CCCO4)CC3)NC2=O)c1 (single isomer, unassigned) [Ex. I-1-a-9]
[4]
  Kill rate in % after 7d: 100%

## COCCOC1CCC2(CC1)NC(=O)C(c1c(C)cc(C)c(C)c1C)=C2O (single isomer, unassigned) [Ex. I-1-a-3]
[3]
  Kill rate in % after 7d: 98%
[4]
  Kill rate in % after 7d: 100%

## O=C1NC2(CCC(OCc3ccc(Cl)cc3)CC2)C(O)=C1c1cc(-c2ccc(Cl)cc2)ccc1Cl (single isomer, unassigned) [Ex. I-1-a-31]
[5]; 500 ppm
  Kill rate in % after 7d: 100%
[3]
  Kill rate in % after 7d: 99%
[1]
  Effect in % after 14d: 95%

## C=CCOC1CCC2(CC1)NC(=O)C(c1c(C)cc(Cl)cc1C)=C2O (single isomer, unassigned) [Ex. I-1-a-11]
[5]; 500 ppm
  Kill rate in % after 7d: 100%
[8]
  % damage: 100%
[9]
  % damage: 90%
[3]
  Kill rate in % after 7d: 95%

## COCCOC1CCC2(CC1)NC(=O)C(c1c(C)cc(C)cc1C)=C2O (single isomer, unassigned) [Ex. I-1-a-4]
[5]; 1000 ppm
  Kill rate in % after 7d: 100%
[10]
  % damage: 100%
[6]; 250 g of ai/ha
  % damage: 95%
[7]; 250 g of ai/ha
  % damage: 80%
[2]; 1000 ppm
  Kill rate in % after 6d: 90%

## Cc1cc(C)c(C2=C(O)C3(CCC(OCC4CCCO4)CC3)NC2=O)c(C)c1C (single isomer, unassigned) [Ex. I-1-a-6]
[4]
  Kill rate in % after 7d: 100%

## Cc1cc(Cl)cc(C)c1C1=C(O)C2(CCC(OCC3CCCO3)CC2)NC1=O (single isomer, unassigned) [Ex. I-1-a-10]
[11]
  % damage: 95%
[12]
  % damage: 90%
[13]
  % damage: 0%
[14]
  % damage: 80%
[15]
  % damage: 70%
[4]
  Kill rate in % after 7d: 100%

## Cc1cc(C)c(C2=C(O)C3(CCC(OCc4ccccc4Cl)CC3)NC2=O)cc1C (single isomer, unassigned) [Ex. I-1-a-20]
[4]
  Kill rate in % after 7d: 100%
